Data taken from ChEMBL document CHEMBL4828726, “Modification of 5-methylphenanthridium from benzothiazoles to indoles as potent FtsZ inhibitors: Broadening the antibacterial spectrum toward vancomycin-resistant enterococci” (Eur J Med Chem, 2021).
In brackets after ≈: the same amount, converted by molar mass. Activity calls are given as the source filed them. The rule behind the calls is not given here.

What was measured:
[1] = tested on: Bacillus subtilis; test: Antibacterial activity against penicillin-susceptible Bacillus subtilis ATCC 9372 assessed as inhibition of bacterial growth measured after 20 hrs by two-fold microdilution assay; format: functional
[2] = tested on: Bacillus pumilus; test: Antibacterial activity against penicillin-susceptible Bacillus pumilus CMCC63202 assessed as inhibition of bacterial growth measured after 20 hrs by two-fold microdilution assay; format: functional
[3] = tested on: Streptococcus pyogenes; test: Antibacterial activity against erythromycin-susceptible Streptococcus pyogenes assessed as inhibition of bacterial growth measured after 20 hrs by two-fold microdilution assay; format: functional
[4] = tested on: Escherichia coli; test: Antibacterial activity against penicillin-susceptible Escherichia coli ATCC 25922 assessed as inhibition of bacterial growth measured after 20 hrs by two-fold microdilution assay; format: functional
[5] = tested on: Pseudomonas aeruginosa; test: Antibacterial activity against penicillin-susceptible Pseudomonas aeruginosa ATCC 27853 assessed as inhibition of bacterial growth measured after 20 hrs by two-fold microdilution assay; format: functional
[6] = tested on: Streptococcus pyogenes; test: Antibacterial activity against erythromycin-resistant Streptococcus pyogenes assessed as inhibition of bacterial growth measured after 20 hrs by two-fold microdilution assay; format: functional
[7] = tested on: Staphylococcus epidermidis; test: Antibacterial activity against penicillin-resistant Staphylococcus epidermidis assessed as inhibition of bacterial growth measured after 20 hrs by two-fold microdilution assay; format: functional
[8] = tested on: Enterococcus faecium; test: Antibacterial activity against Vancomycin-susceptible Enterococcus faecium ATCC 19434 assessed as inhibition of bacterial growth measured after 20 hrs by two-fold microdilution assay; format: functional
[9] = tested on: Enterococcus faecium; test: Antibacterial activity against Vancomycin-resistant Enterococcus faecium ATCC 51559 assessed as inhibition of bacterial growth measured after 20 hrs by two-fold microdilution assay; format: functional
[10] = tested on: Bacillus subtilis; test: Bactericidal activity against penicillin-susceptible Bacillus subtilis ATCC 9372 assessed as inhibition of bacterial growth measured after 20 hrs by two-fold microdilution assay; format: functional
[11] = tested on: Bacillus pumilus; test: Bactericidal activity against penicillin-susceptible Bacillus pumilus CMCC63202 assessed as inhibition of bacterial growth measured after 20 hrs by two-fold microdilution assay; format: functional
[12] = tested on: Staphylococcus aureus; test: Bactericidal activity against erythromycin-susceptible Staphylococcus aureus ATCC 25923 assessed as inhibition of bacterial growth measured after 20 hrs by two-fold microdilution assay; format: functional
[13] = tested on: Staphylococcus aureus; test: Bactericidal activity against methicillin-resistant Staphylococcus aureus ATCC43300 assessed as inhibition of bacterial growth measured after 20 hrs by two-fold microdilution assay; format: functional
[14] = tested on: Staphylococcus aureus; test: Bactericidal activity against penicillin-resistant Staphylococcus aureus ATCC 31007 assessed as inhibition of bacterial growth measured after 20 hrs by two-fold microdilution assay; format: functional
[15] = tested on: Enterococcus faecalis; test: Bactericidal activity against Vancomycin-susceptible Enterococcus faecalis ATCC 29212 assessed as inhibition of bacterial growth measured after 20 hrs by two-fold microdilution assay; format: functional
[16] = tested on: Enterococcus faecium; test: Bactericidal activity against Vancomycin-susceptible Enterococcus faecium ATCC 19434 assessed as inhibition of bacterial growth measured after 20 hrs by two-fold microdilution assay; format: functional
[17] = tested on: Enterococcus faecium; test: Bactericidal activity against Vancomycin-resistant Enterococcus faecium ATCC 51559 assessed as inhibition of bacterial growth measured after 20 hrs by two-fold microdilution assay; format: functional
[18] = tested on: Enterococcus faecalis; test: Bactericidal activity against Vancomycin-resistant Enterococcus faecalis ATCC 51299 assessed as inhibition of bacterial growth measured after 20 hrs by two-fold microdilution assay; format: functional
[19] = tested on: Staphylococcus aureus; test: Antibacterial activity against Staphylococcus aureus ATCC 25923 assessed as decrease of bacterial growth at 32 ug/ml measured up to 24 hrs by Time kill assay; format: functional, organism-based; settings: dose 32.0 µg/ml, time hrs <=24
[20] = molecular target: T1, Cell division protein FtsZ (Bacillus subtilis (strain 168)) (UniProt P17865); test: Inhibition of Bacillus subtilis FtsZ assessed as promotion of FtsZ polymerization at 10 ug/ml measured after […] by fluorescence spectrometer based light scattering assay; settings: dose 10.0 µg/ml
T1 sequence (whole entry): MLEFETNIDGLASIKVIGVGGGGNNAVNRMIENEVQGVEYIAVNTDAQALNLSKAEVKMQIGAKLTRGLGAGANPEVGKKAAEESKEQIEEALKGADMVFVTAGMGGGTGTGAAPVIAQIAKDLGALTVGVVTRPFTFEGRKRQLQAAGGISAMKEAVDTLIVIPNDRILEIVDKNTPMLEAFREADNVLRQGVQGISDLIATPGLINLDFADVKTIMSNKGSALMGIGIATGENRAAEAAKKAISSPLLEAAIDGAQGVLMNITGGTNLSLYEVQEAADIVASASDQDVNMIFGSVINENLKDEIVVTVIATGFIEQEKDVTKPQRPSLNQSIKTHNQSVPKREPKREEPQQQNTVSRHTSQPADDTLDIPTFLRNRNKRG

[21] = tested on: Staphylococcus aureus; test: Antibacterial activity against Staphylococcus aureus ATCC 25923 infected in Kunming mouse assessed as decrease in viable bacterial in eye blood at 5 mg/kg, ip measured after 1 hr; format: functional, organism-based
[22] = tested on: Staphylococcus aureus; test: Antibacterial activity against Staphylococcus aureus ATCC 25923 assessed as fold change in MIC value measured after 14 passages by Multi passage resistance assay; format: functional, organism-based
[23] = tested on: Staphylococcus aureus; test: Antibacterial activity against erythromycin-susceptible Staphylococcus aureus ATCC 25923 assessed as inhibition of bacterial growth measured after 20 hrs by two-fold microdilution assay; format: functional
[24] = tested on: Staphylococcus aureus; test: Antibacterial activity against methicillin-resistant Staphylococcus aureus ATCC43300 assessed as inhibition of bacterial growth measured after 20 hrs by two-fold microdilution assay; format: functional
[25] = tested on: Staphylococcus aureus; test: Antibacterial activity against penicillin-resistant Staphylococcus aureus ATCC 31007 assessed as inhibition of bacterial growth measured after 20 hrs by two-fold microdilution assay; format: functional
[26] = tested on: Staphylococcus aureus; test: Antibacterial activity against clinical isolate Staphylococcus aureus C1 assessed as inhibition of bacterial growth measured after 20 hrs by two-fold microdilution assay; format: functional
[27] = tested on: Enterococcus faecalis; test: Antibacterial activity against Vancomycin-susceptible Enterococcus faecalis ATCC 29212 assessed as inhibition of bacterial growth measured after 20 hrs by two-fold microdilution assay; format: functional
[28] = tested on: Enterococcus faecalis; test: Antibacterial activity against Vancomycin-resistant Enterococcus faecalis ATCC 51299 assessed as inhibition of bacterial growth measured after 20 hrs by two-fold microdilution assay; format: functional
[29] = tested on: Bacillus subtilis; test: Ratio of MBC to MIC against penicillin-susceptible Bacillus subtilis ATCC 9372; format: functional
[30] = tested on: Staphylococcus aureus; test: Ratio of MBC to MIC against erythromycin-susceptible Staphylococcus aureus ATCC 25923; format: functional
[31] = tested on: Staphylococcus aureus; test: Ratio of MBC to MIC against penicillin-resistant Staphylococcus aureus ATCC 31007; format: functional
[32] = tested on: Staphylococcus aureus; test: Antibacterial activity against Staphylococcus aureus ATCC 25923 assessed as reduction of colony forming units at 4 to 64 ug/ml measured up to 24 hrs by Time kill assay; format: functional, organism-based; settings: dose 4-64 µg/ml, time hrs <=24
[33] = tested on: Pseudomonas aeruginosa; test: Anti-biofilm activity against Pseudomonas aeruginosa ATCC 27853 assessed as inhibition of biofilm formation at 4 to 64 ug/ml measured after 20 hrs by crystal violet staining based biofilm formation inhibition assay; format: functional, organism-based; settings: dose 4-64 µg/ml
[34] = Hemolytic activity against mouse RBC at 1 to 16 ug/ml measured after 1 hr by hemolysis assay relative to Triton X-100; format: ADME, cell-based, Erythrocyte; settings: mouse red blood cells (erythrocytes), at 1 to 16 µg/mL, dose 1-16 µg/ml, read-out: Activity
[35] = tested on: Staphylococcus aureus; test: Antibacterial activity against Staphylococcus aureus ATCC 25923 infected in Kunming mouse assessed as decrease in viable bacterial in eye blood at 25 mg/kg, ip measured after 1 hr; format: functional, organism-based
[36] = tested on: Bacillus pumilus; test: Inhibition of Bacillus pumilus CMCC63202 FtsZ assessed as change in morphology by measuring increase of cell length at 16 ug/ml measured after 20 hrs by optical microscopy; settings: dose 16.0 µg/ml
[37] = molecular target: T1, Cell division protein FtsZ (Bacillus subtilis (strain 168)); test: Inhibition of Bacillus subtilis FtsZ assessed as promotion of FtsZ polymerization measured after […] by fluorescence spectrometer based light scattering assay; settings: dose 2.5-10 µg/ml
[38] = tested on: Bacillus pumilus; test: Inhibition of Bacillus pumilus CMCC63202 FtsZ assessed as aggregation of FtsZ at 10 ug/ml pre-incubated for 30 mins followed by addition of GTP and measured after 30 mins measured after by Transmission electron microscopic method; settings: dose 10.0 µg/ml
[39] = tested on: Staphylococcus aureus; test: Antibacterial activity against Staphylococcus aureus ATCC 25923 assessed as decrease of bacterial growth measured up to 24 hrs by Time kill assay; format: functional, organism-based; settings: dose 4-32 µg/ml, time hrs <=24
[40] = tested on: Staphylococcus aureus; test: Antibacterial activity against Staphylococcus aureus ATCC 25923 assessed as fold increase in MIC value measured after 1 passage by Multi passage resistance assay; format: functional
[41] = tested on: Bacillus pumilus; test: Ratio of MBC to MIC against penicillin-susceptible Bacillus pumilus CMCC63202; format: functional
[42] = tested on: Staphylococcus aureus; test: Ratio of MBC to MIC against methicilline-resistant Staphylococcus aureus ATCC43300; format: functional

SMILES: CC(=O)NC[C@H]1CN(c2ccc(N3CCOCC3)c(F)c2)C(=O)O1 [LINEZOLID]
- MIC [1]: 0.5 µg/mL (≈ 1.48 µM)
- MIC [2]: 2 µg/mL (≈ 5.93 µM)
- MIC [3]: 1 µg/mL (≈ 2.96 µM)
- MIC [4]: > 64 µg/mL
- MIC [5]: > 64 µg/mL
- MIC [6]: 1 µg/mL (≈ 2.96 µM)
- MIC [7]: 4 µg/mL (≈ 11.9 µM)
- MIC [8]: 4 µg/mL (≈ 11.9 µM)
- MIC [9]: 4 µg/mL (≈ 11.9 µM)
- MBC [10]: 64 µg/mL (≈ 190 µM)
- MBC [11]: 16 µg/mL (≈ 47.4 µM)
- MBC [12]: 128 µg/mL (≈ 379 µM)
- MBC [13]: 8 µg/mL (≈ 23.7 µM)
- MBC [14]: 16 µg/mL (≈ 47.4 µM)
- MBC [15]: 64 µg/mL (≈ 190 µM)
- MBC [16]: > 64 µg/mL
- MBC [17]: 64 µg/mL (≈ 190 µM)
- MBC [18]: 64 µg/mL (≈ 190 µM)
- Activity [19]: Active
- inhibition [20]: inactive

SMILES: Cc1cccc2c[n+](C)c3ccc(-c4ccc5ccn(Cc6ccccc6)c5c4)cc3c12.[Cl-]
- Activity [21]: Active
- Activity [22]: Active
- MIC [1]: 4 µg/mL
- MIC [2]: 4 µg/mL
- MIC [23]: 1 µg/mL
- MIC [3]: 8 µg/mL
- MIC [4]: > 64 µg/mL
- MIC [5]: > 64 µg/mL
- MIC [24]: 2 µg/mL
- MIC [25]: 4 µg/mL
- MIC [26]: 2 µg/mL
- MIC [6]: 8 µg/mL
- MIC [7]: 8 µg/mL
- MIC [27]: 8 µg/mL
- MIC [8]: 8 µg/mL
- MIC [9]: 8 µg/mL
- MIC [28]: 16 µg/mL
- MBC [10]: 16 µg/mL
- MBC [11]: > 64 µg/mL
- MBC [12]: 32 µg/mL
- MBC [13]: 64 µg/mL
- MBC [14]: 64 µg/mL
- Ratio [29]: 4
- Ratio [30]: 32
- Ratio [31]: 16
- Activity [32]: Active
- Activity [33]: inactive
- hemolysis at 1 h [34]: < 8%
- Activity [35]: Active
- inhibition [36]: Active
- inhibition [37]: Active
- inhibition [38]: Active
- Activity [39]: Dose-Dependent Effect
- fold change (FC) [40]: 2

SMILES: Cc1ccc2c[n+](C)c3ccc(-c4ccc5ccn(Cc6ccccc6)c5c4)cc3c2c1.[Cl-]
- MIC [1]: 2 µg/mL
- MIC [2]: 4 µg/mL
- MIC [23]: 2 µg/mL
- MIC [3]: 4 µg/mL
- MIC [4]: > 64 µg/mL
- MIC [5]: > 64 µg/mL
- MIC [24]: 4 µg/mL
- MIC [25]: 4 µg/mL
- MIC [26]: 2 µg/mL
- MIC [6]: 4 µg/mL
- MIC [7]: 8 µg/mL
- MIC [27]: 8 µg/mL
- MIC [8]: 4 µg/mL
- MIC [9]: 4 µg/mL
- MIC [28]: 16 µg/mL
- MBC [10]: 4 µg/mL
- MBC [11]: 64 µg/mL
- MBC [12]: 32 µg/mL
- MBC [13]: 16 µg/mL
- MBC [14]: 64 µg/mL
- Ratio [29]: 2
- Ratio [41]: 16
- Ratio [30]: 16
- Ratio [42]: 4

SMILES: C[n+]1cc2c3c(ccc2c2ccc4cc5c(cc4c21)OCO5)OCO3 [SANGUINARIUM]
- MIC [1]: 2 µg/mL
- MIC [2]: 4 µg/mL
- MIC [23]: 4 µg/mL
- MIC [3]: 2 µg/mL
- MIC [4]: 32 µg/mL
- MIC [5]: > 64 µg/mL
- MIC [24]: 8 µg/mL
- MIC [25]: 16 µg/mL
- MIC [26]: 4 µg/mL
- MIC [6]: 2 µg/mL
- MIC [7]: 8 µg/mL
- MIC [27]: 16 µg/mL
- MIC [8]: 64 µg/mL
- MIC [9]: 32 µg/mL
- MIC [28]: 32 µg/mL
- MBC [10]: > 128 µg/mL
- MBC [11]: 32 µg/mL
- MBC [12]: 128 µg/mL
- MBC [13]: 128 µg/mL
- MBC [14]: > 64 µg/mL
- Ratio [41]: 8
- Ratio [30]: 32
- Ratio [42]: 16
- MBC [15]: > 64 µg/mL
- MBC [16]: > 64 µg/mL
- MBC [17]: > 64 µg/mL
- MBC [18]: > 64 µg/mL
